This passage reports IC50 and Kd results from ChEMBL document CHEMBL3875159, “High-affinity small molecular blockers of mixed lineage leukemia 1 (MLL1)-WDR5 interaction inhibit MLL1 complex H3K4 methyltransferase activity” (Eur J Med Chem, 2016).

The target in assay [1] is T1, WD repeat-containing protein 5 (Homo sapiens, UniProt P61964). As to the kind of experiment: Inhibition of 10mer-Thr-FAM probe binding to human WDR5 after 2 hrs by fluorescence polarization assay. Background: Fluorescence polarisation rises when a labelled molecule tumbles more slowly, as on binding a larger partner.
Assay [2] has as its target T1, WD repeat-containing protein 5. As to the kind of experiment: Binding affinity to human WDR5 by isothermal titration calorimetry.
The target in assay [3] is MLL1/ASH2L/RBBP5/WDR5 complex (Homo sapiens, UniProt P61964+Q03164+Q15291+Q9UBL3). As to the kind of experiment: Inhibition of recombinant MLL1/ASH2L/RBBP5/WDR5 complex histone methyltransferase activity (unknown origin) by AlphaScreen assay. The format is protein-complex assay. Background: Alpha assays give light when donor and acceptor beads are brought close together.

Assay [4] is described as follows: Antiproliferative activity against human MV4-11 cells harboring MLL-AF4 fusion protein after 72 hrs by CCK8 assay. The format is functional, cell-based. The conditions noted are these: MV4-11, 72 h.

`Cc1c(F)ccc(C(=O)Nc2cc([N+](=O)[O-])ccc2N2CCN(c3ccccn3)CC2)c1Cl`: the IC50 (commonly the concentration at which inhibition is half-maximal) in assay [1] was over 20 µM. In the case of `Cc1c(F)c(N)cc(C(=O)Nc2cc(-c3ccc(NC(=O)C4CCNCC4)cc3)ccc2N2CCN(C)CC2)c1Cl`, in assay [2], the Kd (commonly the equilibrium constant for the complex coming apart) was determined as 0.0075 µM. The IC50 amounted to 0.3 µM in assay [3] and 9.2 µM in assay [4]. For the compound `Cc1c(F)ccc(C(=O)Nc2cc([N+](=O)[O-])ccc2NCCN)c1Cl`, in assay [1], the IC50 was over 20 µM. For `Cc1c(F)c(N)cc(C(=O)Nc2cc(-c3ccc(NC(=O)c4ccccc4)cc3)ccc2N2CCN(C)CC2)c1Cl`, the IC50 in assay [1] turned out to be 0.422 µM; in assay [4], 5.4 µM.

In the case of `Cc1c(F)c(N)cc(C(=O)Nc2cc(-c3ccc(NC(=O)CCNC(=O)OC(C)(C)C)cc3)ccc2N2CCN(C)CC2)c1Cl`, the values for the IC50 in assay [1] and in assay [4] were 0.102 µM and 4.6 µM, respectively. `COc1ccc(N2CCN(c3ccc([N+](=O)[O-])cc3NC(=O)c3ccc(F)c(C)c3Cl)CC2)cc1` had an IC50 in assay [1] of over 20 µM. Compound `Cc1c(F)c([N+](=O)[O-])cc(C(=O)Nc2cc(-c3ccc([N+](=O)[O-])cc3)ccc2N2CCN(C)CC2)c1Cl` gave an IC50 in assay [1] of 0.285 µM. As to `CCCC(=O)Nc1ccc(-c2ccc(N3CCN(C)CC3)c(NC(=O)c3cc(N)c(F)c(C)c3Cl)c2)cc1`, the IC50 came to 0.076 µM in assay [1] and 2.3 µM in assay [4]. In the case of `CC(=O)Nc1ccc(-c2ccc(N3CCN(C)CC3)c(NC(=O)c3cc(N)c(F)c(C)c3Cl)c2)cc1`, the values for the IC50 in assay [1] and in assay [4] were 0.0701 µM and 12.5 µM, respectively. As for `CN1CCN(c2ccc(-c3ccc([N+](=O)[O-])cc3)cc2NC(=O)c2ccc(F)c([N+](=O)[O-])c2)CC1`, the IC50 in assay [1] was 1.09 µM.

In the case of `Cc1c(F)c(N)cc(C(=O)Nc2cc(-c3ccc(NC(=O)C(C)N)cc3)ccc2N2CCN(C)CC2)c1Cl` (stereo not drawn), the figures for the IC50 in assay [1] and in assay [4] were 0.015 µM and 11.1 µM, respectively.

On to `Cc1c(F)ccc(C(=O)Nc2cc([N+](=O)[O-])ccc2NCCCn2ccnc2)c1Cl`, for which the IC50 in assay [1] is over 20 µM.

For the compound `Cc1c(F)c(N)cc(C(=O)Nc2cc(-c3ccc(NC(=O)C(C)NC(=O)OC(C)(C)C)cc3)ccc2N2CCN(C)CC2)c1Cl` (stereo not drawn), the IC50 came to 0.0779 µM in assay [1] and 4.3 µM in assay [4]. As for `CC(=O)Nc1cc(C(=O)Nc2cc(-c3ccncc3)ccc2N2CCN(C)CC2)c(Cl)c(C)c1F`, the IC50 in assay [1] was found to be 1.36 µM. On the same count and under the same terms, the result for `Cc1c(F)c(N)cc(C(=O)Nc2cc(-c3ccncc3)ccc2N2CCN(C)CC2)c1Cl` reads 0.0182 µM. The compound `CN1CCN(c2ccc(-c3ccncc3)cc2NC(=O)c2ccc(F)c([N+](=O)[O-])c2)CC1` yielded an IC50 in assay [1] of 0.198 µM.

Compound `Cc1c(F)ccc(C(=O)Nc2cc([N+](=O)[O-])ccc2N2CCN(Cc3ccccc3)CC2)c1Cl` came in with an IC50 in assay [1] of over 20 µM. The same measure, in the same setting: with `CN1CCN(c2ccc(-c3ccc(N)cc3)cc2NC(=O)c2cccc(N)c2)CC1` the figure was over 20 µM. Take `Cc1c(F)c(N)cc(C(=O)Nc2cc(-c3ccc(NC(=O)CCN)cc3)ccc2N2CCN(C)CC2)c1Cl`: the IC50 in assay [1] was 0.0502 µM; in assay [4], 25.1 µM. For `Cc1c(F)c(N)cc(C(=O)Nc2cc(-c3ccc(NC(=O)C4CC4)cc3)ccc2N2CCN(C)CC2)c1Cl` the same measures were 0.0758 µM and 4.8 µM. Consider `CN1CCN(c2ccc(-c3ccncc3)cc2NC(=O)c2ccc(F)c(N)c2)CC1`, for which the IC50 in assay [1] came to 5.8 µM. Take `CCC(=O)Nc1ccc(-c2ccc(N3CCN(C)CC3)c(NC(=O)c3cc(N)c(F)c(C)c3Cl)c2)cc1`: the IC50 in assay [1] is 0.0815 µM; in assay [4] it was 6.5 µM. Regarding `Cc1c(F)c(N)cc(C(=O)Nc2cc(-c3ccc(NC(=O)C(C)C)cc3)ccc2N2CCN(C)CC2)c1Cl`, the IC50 is 0.0956 µM in assay [1] and 4.5 µM in assay [4]. The corresponding values for `Cc1c(F)c(N)cc(C(=O)Nc2cc(-c3ccc(NC(=O)CCCNC(=O)OC(C)(C)C)cc3)ccc2N2CCN(C)CC2)c1Cl` are 0.0804 µM and 4.8 µM. On to `Cc1c(F)c(N)cc(C(=O)Nc2cc(-c3ccc(NC(=O)C4CCCCC4)cc3)ccc2N2CCN(C)CC2)c1Cl`, for which the IC50 stood at 0.341 µM in assay [1] and 3.8 µM in assay [4]. In assay [1], `CC(=O)Nc1cc(C(=O)Nc2cc(-c3ccc(N)cc3)ccc2N2CCN(C)CC2)c(Cl)c(C)c1F` registered an IC50 of 3.19 µM. In the case of `Cc1c(F)c(N)cc(C(=O)Nc2cc(-c3ccc(NC(=O)CN)cc3)ccc2N2CCN(C)CC2)c1Cl`, the IC50 in assay [1] came out at 0.0625 µM; in assay [4], 13.2 µM.

Consider `Cc1c(F)c(N)cc(C(=O)Nc2cc(-c3ccc(NC(=O)CNC(=O)OC(C)(C)C)cc3)ccc2N2CCN(C)CC2)c1Cl`, for which the IC50 was found to be 1.55 µM in assay [1] and 4.1 µM in assay [4]. Consider `CN1CCN(c2ccc(-c3ccc(N)cc3)cc2NC(=O)c2ccc(F)c(N)c2)CC1`, for which, in assay [1], the IC50 stood at 13.6 µM.

As to `CC(=O)Nc1cc(C(=O)Nc2cc(-c3ccc([N+](=O)[O-])cc3)ccc2N2CCN(C)CC2)c(Cl)c(C)c1F`, the IC50 in assay [1] was over 20 µM. As to `Cc1c(F)c(N)cc(C(=O)Nc2cc(-c3ccc(NC(=O)CC(C)C)cc3)ccc2N2CCN(C)CC2)c1Cl`, the IC50 in assay [1] is 0.105 µM; in assay [4], 3.9 µM.

In turn, `COC(=O)c1ccc(-c2ccc(N3CCN(C)CC3)c(NC(=O)c3cc([N+](=O)[O-])c(F)c(C)c3Cl)c2)cc1` displayed an IC50 in assay [1] of 0.0925 µM. As for `Cc1c(F)ccc(C(=O)Nc2cc([N+](=O)[O-])ccc2NCCN2CCCC2)c1Cl`, the IC50 in assay [1] was over 20 µM. In assay [1], `CN1CCN(c2ccc(-c3ccc([N+](=O)[O-])cc3)cc2NC(=O)c2cccc([N+](=O)[O-])c2)CC1` registered an IC50 of 0.285 µM.

`Cc1c(F)c([N+](=O)[O-])cc(C(=O)Nc2cc(-c3ccncc3)ccc2N2CCN(C)CC2)c1Cl` returned an IC50 in assay [1] of 0.0771 µM. For the compound `Cc1c(F)ccc(C(=O)Nc2cc([N+](=O)[O-])ccc2N2CCN(c3ccc(F)cc3)CC2)c1Cl`, the IC50 in assay [1] is over 20 µM.
